Experimental data as given in patent US20230320956A1, “DIARYLALKANE COMPOUNDS AND COMPOSITIONS FOR USE WITH SKIN AGING AND METHODS OF PRODUCTION THEREOF” (Unigen, Inc., priority 2022, published 2023).

Tested on: keratinocytes (Hacat cell line)
Test: Global gene expression (RNA-seq) in treated keratinocytes
Format: cell-based, human
Conditions: for Fold change (gene expression): 40 μM vs untreated; for Fold Enrichment / Number of Genes Differentially Expressed: 40 μM
Method: To determine specific expression changes dimethoxytolyl propylresorcinol exerted on human keratinocyte aging genes, keratinocytes (Hacat cell line) were treated dimethoxytolyl propylresorcinol at 40 μM and gene expression was analyzed by RNA-seq. Differential gene expression was compared to untreated keratinocytes and cells treated with 40 μM Retinol A to find genes involved in aging. […] Retinol was chosen as a positive control because retinoids have been described as having effective anti-aging and anti-wrinkle effects (Zasada M, 2019). We directly compared the effects of Retinol on keratinocytes with the same concentration of dimethoxytolyl propylresorcinol.

[1] = Gene Cluster Activation of MAPK activity
[2] = Gene Cluster Calcium ion binding
[3] = Gene Cluster Cell-cell signaling
[4] = Gene Cluster Cellular response to lipopolysaccharide
[5] = Gene Cluster Cellular response to retinoic acid
[6] = Gene Cluster Epidermis development
[7] = Gene Cluster Epithelial cell differentiation
[8] = Gene Cluster Extracellular exosome
[9] = Gene Cluster Extracellular matrix organization
[10] = Gene Cluster Extracellular region
[11] = Gene Cluster Extracellular space
[12] = Gene Cluster Growth factor activity
[13] = Gene Cluster Inflammatory response
[14] = Gene Cluster Intermediate filament cytoskeleton organization
[15] = Gene Cluster Negative regulation of ERK1 and ERK2 cascade
[16] = Gene Cluster Negative regulation of cell proliferation
[17] = Gene Cluster Negative regulation of endopeptidase activity
[18] = Gene Cluster Neutrophil chemotaxis
[19] = Gene Cluster O-glycan processing
[20] = Gene Cluster Osteoblast differentiation
[21] = Gene Cluster Positive regulation of angiogenesis
[22] = Gene Cluster Positive regulation of cell migration
[23] = Gene Cluster Positive regulation of cell proliferation
[24] = Gene Cluster Positive regulation of gene expression
[25] = Gene Cluster Positive regulation of smooth muscle cell proliferation
[26] = Gene Cluster Proteinaceous extracellular matrix
[27] = Gene Cluster Transforming growth factor beta receptor binding

CC1=C(/C=C/C(C)=C/C=C/C(C)=C/CO)C(C)(C)CCC1 [Retinol, reference compound]
Fold change (gene expression) (AHR - Aryl hydrocarbon receptor, Oxidative stress): No effect
Fold change (gene expression) (ANGPTL4 - Angiopoietin-like 4, Negative regulation of growth/Angiogenesis): 2.77 fold
Fold change (gene expression) (ANOS1 - Anosmin 1, ECM/Nerve adhesion): 0.55 fold
Fold change (gene expression) (BMP4 - Bone morphogenetic protein 4, Growth): 0.51 fold
Fold change (gene expression) (C3orf33 - Chromosome 3 open reading frame 33, Negative regulation of growth): 2.24 fold
Fold change (gene expression) (CD1D - CD1d molecule, ECM): 0.32 fold
Fold change (gene expression) (CDK5R1 - Cyclin-dependent kinase 5 activator 1, Growth/Skin barrier): No effect
Fold change (gene expression) (CEACAM1 - CEA cell adhesion molecule 1, Cell adhesion): 3.00 fold
Fold change (gene expression) (COL1A1 - Collagen type 1, ECM): No effect
Fold change (gene expression) (COL5A1 - Collagen type V alpha 1 chain, ECM): 0.27 fold
Fold change (gene expression) (CRISPLD2 - Cysteine-rich secretory protein LCCL domain-containing 2, ECM): 1.98 fold
Fold change (gene expression) (CXCL3 - C-X-C motif chemokine ligand 3, Immune signaling): 2.60 fold
Fold change (gene expression) (CYP1A1 - Cytochrome P450 family 1 subfamily A member 1, Drug metabolism): 2.30 fold
Fold change (gene expression) (ECM1 - Extracellular matrix protein 1, ECM): No effect
Fold change (gene expression) (EPHA4 - Ephrin type-A receptor 4, Cell adhesion, cell communication): 0.55 fold
Fold change (gene expression) (EREG - Epiregulin, Growth): No effect
Fold change (gene expression) (FABP5 - Fatty acid binding protein 5, Skin barrier): No effect
Fold change (gene expression) (FGF1 - Fibroblast growth factor 1, Growth): 0.45 fold
Fold change (gene expression) (FGF11 - Fibroblast growth factor 11, Growth): 0.50 fold
Fold change (gene expression) (FLRT2 - Fibronectin leucine-rich transmembrane protein 2, ECM): 0.58 fold
Fold Enrichment [1]: 3.15 fold
Number of Genes Differentially Expressed [1]: 7
Fold Enrichment (Gene Cluster Angiogenesis): 2.37 fold
Number of Genes Differentially Expressed (Gene Cluster Angiogenesis): 11
Fold Enrichment [2]: 2.04 fold
Number of Genes Differentially Expressed [2]: 30
Fold Enrichment (Gene Cluster Cell development): 4.81 fold
Number of Genes Differentially Expressed (Gene Cluster Cell development): 4
Fold Enrichment (Gene Cluster Cell surface): 1.84 fold
Number of Genes Differentially Expressed (Gene Cluster Cell surface): 20
Fold Enrichment [3]: 2.46 fold
Number of Genes Differentially Expressed [3]: 13
Fold Enrichment [4]: 4.26 fold
Number of Genes Differentially Expressed [4]: 10
Fold Enrichment [5]: 4.12 fold
Number of Genes Differentially Expressed [5]: 6
Fold Enrichment [6]: 4.53 fold
Number of Genes Differentially Expressed [6]: 8
Fold Enrichment [7]: 4.81 fold
Number of Genes Differentially Expressed [7]: 7
Fold Enrichment [8]: 1.47 fold
Number of Genes Differentially Expressed [8]: 83
Fold Enrichment [9]: 3.19 fold
Number of Genes Differentially Expressed [9]: 13
Fold Enrichment [10]: 1.73 fold
Number of Genes Differentially Expressed [10]: 56
Fold Enrichment [11]: 2.48 fold
Number of Genes Differentially Expressed [11]: 67
Fold Enrichment [12]: 3.00 fold
Number of Genes Differentially Expressed [12]: 10
Fold Enrichment (Gene Cluster Growth): 6.87 fold
Number of Genes Differentially Expressed (Gene Cluster Growth): 4
Fold Enrichment (Gene Cluster Heparin binding): 4.86 fold
Number of Genes Differentially Expressed (Gene Cluster Heparin binding): 16
Fold Enrichment [13]: 2.54 fold
Number of Genes Differentially Expressed [13]: 20
Fold Enrichment [14]: 9.62 fold
Number of Genes Differentially Expressed [14]: 3
Fold Enrichment [15]: 5.81 fold
Number of Genes Differentially Expressed [15]: 7
Fold Enrichment [16]: 2.43 fold
Number of Genes Differentially Expressed [16]: 20
Fold Enrichment [17]: 2.78 fold
Number of Genes Differentially Expressed [17]: 7
Fold Enrichment [18]: 3.65 fold
Number of Genes Differentially Expressed [18]: 5
Fold Enrichment [19]: 4.00 fold
Number of Genes Differentially Expressed [19]: 5
Fold Enrichment [20]: 3.24 fold
Number of Genes Differentially Expressed [20]: 7
Fold Enrichment [21]: 3.35 fold
Number of Genes Differentially Expressed [21]: 8
Fold Enrichment [22]: 3.40 fold
Number of Genes Differentially Expressed [22]: 13
Fold Enrichment [23]: 1.86 fold
Number of Genes Differentially Expressed [23]: 18
Fold Enrichment [24]: 2.20 fold
Number of Genes Differentially Expressed [24]: 12
Fold Enrichment [25]: 4.81 fold
Number of Genes Differentially Expressed [25]: 6
Fold Enrichment [26]: 4.27 fold
Number of Genes Differentially Expressed [26]: 23
Fold Enrichment (Gene Cluster Response to drug): 2.37 fold
Number of Genes Differentially Expressed (Gene Cluster Response to drug): 15
Fold Enrichment [27]: 5.79 fold
Number of Genes Differentially Expressed [27]: 5
Fold change (gene expression) (HAS2 - hyaluronan synthase 2, ECM): No effect
Fold change (gene expression) (HAS3 - hyaluronan synthase 3, ECM): No effect
Fold change (gene expression) (HBEGF - Heparin-binding EGF-like growth factor, Growth): No effect
Fold change (gene expression) (HIF1A - Hypoxia-inducible factor 1 subunit alpha, Oxidative stress): No effect
Fold change (gene expression) (HMOX1 - Heme oxygenase 1, Oxidative stress): No effect
Fold change (gene expression) (HS3ST1 - Heparan sulfate-glucosamine 3-sulfotransferase 1, ECM): 1.48 fold
Fold change (gene expression) (IL1A - Interleukin 1 alpha, Cytokine signaling): No effect
Fold change (gene expression) (IL1RL1 - Interleukin 1 receptor-like 1, Immune signaling): 3.13 fold
Fold change (gene expression) (ITGA6 - Integrin subunit alpha 6, Cell adhesion): 0.59 fold
Fold change (gene expression) (ITGBL1 - Integrin subunit beta-like 1, Cell adhesion): No effect
Fold change (gene expression) (KIF13A - Kinesin family member 13A, Cytoskeleton/secretion): 0.68 fold
Fold change (gene expression) (LAMA3 - Laminin subunit alpha 3, ECM): No effect
Fold change (gene expression) (LAMC2 - Laminin subunit gamma 2, ECM): 0.71 fold
Fold change (gene expression) (NGF - Nerve growth factor, Growth): No effect
Fold change (gene expression) (NID2 - Nidogen 2 precursor, ECM): 0.79 fold
Fold change (gene expression) (OCLN - Occludin, Skin barrier): No effect
Fold change (gene expression) (OLFM4 - Olfactomedin 4, ECM): 0.28 fold
Fold change (gene expression) (PARP15 - Poly (ADP-Ribose) polymerase family member 15, DNA damage repair/transcription regulation): No effect
Fold change (gene expression) (PI3 - Peptidase inhibitor 3, elastase inhibitor, Elastin genes): No effect
Fold change (gene expression) (PSAPL1 - Prosaposin-like 1, ECM): 0.32 fold
Fold change (gene expression) (PSG5 - Pregnancy specific beta-1-glycoprotein 5, ECM): 0.37 fold
Fold change (gene expression) (PTPRR - Protein tyrosine phosphatase receptor type R, Negative regulation of growth): 2.31 fold
Fold change (gene expression) (RAPGEF3 - Rap guanine nucleotide exchange factor 3, Plasma membrane fusion/cytoskeleton): 1.81 fold
Fold change (gene expression) (SELE - E-Selectin, Cell adhesion): No effect
Fold change (gene expression) (SEMA3D - Semaphorin 3D, ECM/Nerve growth): 0.50 fold
Fold change (gene expression) (SERPINB2 - Serpin family B member 2, Skin barrier): 0.70 fold
Fold change (gene expression) (SERPINB4 - Serpin family B member 4, Skin barrier): No effect
Fold change (gene expression) (SIRT1 - Sirtuin 1, Transcription regulation): No effect
Fold change (gene expression) (SIRT7 - Sirtuin 7, Transcription regulation): No effect
Fold change (gene expression) (SOD2 - Superoxide dismutase 2, Oxidative stress): No effect
Fold change (gene expression) (TFP12 - Tissue factor pathway inhibitor 2, ECM): 2.46 fold
Fold change (gene expression) (TGFB1 - Transforming growth factor beta 1, TGF-β signaling): No effect
Fold change (gene expression) (TLR4 - Toll-like receptor 4, Immune signaling): 2.67 fold
Fold change (gene expression) (TNC - Tenascin C, ECM/Nerve growth): 0.14 fold
Fold change (gene expression) (TP73 - Tumor protein P73, Growth): 0.38 fold
Fold change (gene expression) (TXNRD1 - Thioredoxin reductase 1, Oxidative stress): 1.45 fold
Fold change (gene expression) (UGCG - UDP-glucose ceramide glucosyltransferase, Lipid metabolism and transport): 1.24 fold
Fold change (gene expression) (VIT - Vitrin, ECM): 0.14 fold
